Measurements taken from patent US7875638B2, “Synthesis of epothilones, intermediates thereto, analogues and uses thereof” (Sloan-Kettering Institute for Cancer Research, priority 2002, dated 2011).
Converted amounts (≈) assume the structure as drawn. Like-named read-outs stand apart in the source and are kept apart here.

Tests used:
HCT-116 = assay: XTT cell growth inhibition, HCT-116; format: cell-based; conditions: Homo sapiens, HCT-116, read-out: IC50 (nM), HCT-116
CAG = assay: XTT cell growth inhibition, CAG; format: cell-based; conditions: Homo sapiens, read-out: IC50 (nM), CAG
RPMI8226 = assay: XTT cell growth inhibition, RPMI8226; format: cell-based; conditions: Homo sapiens, RPMI-8226, read-out: IC50 (nM), RPMI8226
Solubility in water = conditions: water
Human CD34+ stem cells = assay: Apoptosis and 2 weeks progenitor assays on CD34+ stem cells; format: cell-based; conditions: 24 hours incubation, umbilical cord blood CD34+
Procedure: Then drugs were washed out and annexin V staining was performed. Solid area represents vehicle control and open area represents drug treated group. There is no obvious increased apoptosis of non-cycling human CD34+ cells with short period of exposure to epothilones.
Drug cytotoxicity to hematopoietic stem cells is always a major concern. Human CD34+ stem cells were isolated from umbilical cord blood and incubated with either dEpoB or Fludelone alone for 24 hours. After washing out the drugs, apoptosis assays and 2 weeks progenitor assays were performed to evaluate the influence of epothilone to stem cells.

IGROV = assay: XTT cell growth inhibition, IGROV; format: cell-based; conditions: Homo sapiens, read-out: IC50 (nM), IGROV
Ovarian cancer lines = assay: XTT cell growth inhibition, ovarian cancer lines (mean); format: cell-based; conditions: Homo sapiens, read-out: Mean IC50, ovarian lines
[1] = test system: RPMI8226 myeloma cell line; assay: Annexin V staining, RPMI8226; format: cell-based, human; conditions: 24 hours treatment
Source text: In early apoptotic cells, the membrance phospholipids phosphatidylserine (PS) is translocated from the inner to the outer leaflet of the plasma membrane, thereby exposing PS to the external cellular environment. Annexin V is a 35-36 kD Ca^+2 dependent phospholipid-binding protein that has a high affinity for PS, and binds to cells with exposed PS. In conjunction with a vital dye such as 7-amino-actinomycin (7-AAD) staining dead cells, this assay allows the identification of early apoptotic cells.

primary CD138 MM cells = assay: Apoptosis of primary myeloma cells; format: cell-based, human; conditions: cells obtained from patient marrow
HT-29 = assay: XTT cell growth inhibition, HT-29; format: cell-based; conditions: Homo sapiens, HT-29, read-out: IC50 (nM), HT-29
Ovcar-3 = assay: XTT cell growth inhibition, Ovcar-3; format: cell-based; conditions: Homo sapiens, OVCAR-3, read-out: IC50 (nM), Ovcar-3
[2] = test system: RPMI8226 myeloma cell lines; assay: Cell cycle analysis (propidium iodide DNA staining), RPMI8226; format: cell-based, human; conditions: 31.25 nM
Source text: RPMI8226 myeloma cell lines were used.

CCRF-CEM/Taxol = format: cell-based, human; conditions: Homo sapiens, CCRF-CEM, 72 h
[3] = test system: RPMI-8226 (human multiple myeloma cell line); assay: Global gene expression (Affymetrix chip AU133 2.0); format: cell-based
Ovcar-4 = assay: XTT cell growth inhibition, Ovcar-4; format: cell-based; conditions: Homo sapiens, OVCAR-4, read-out: IC50 (nM), Ovcar-4
MOLP-5 = assay: XTT cell growth inhibition, MOLP-5; format: cell-based; conditions: Homo sapiens, read-out: IC50 (nM), MOLP-5
SKI-DLBCL = assay: XTT cell growth inhibition, SKI-DLBCL; format: cell-based; conditions: Homo sapiens; Lymphoma; XTT tetrazonium assay
OPM-2 myeloma cells = assay: Cell cycle analysis (propidium iodide DNA staining), OPM-2; format: cell-based, human
Source text: FIG. 95 is cell cycle analysis as determined by Propidium iodide DNA staining. […] The two drugs induced the same patter of cell cycle arrest.

HS-5 = assay: XTT cell growth inhibition, HS-5; format: cell-based; conditions: Homo sapiens, HS5, read-out: IC50 (nM), HS-5
[4] = test system: human mammary carcinoma MX-1 xenograft; conditions: mouse, in vivo
CAG myeloma cells = assay: Disseminated CAG xenograft myeloma mice; conditions: 20 mg/kg
Procedure: 10×10^6 CAG myeloma cells engineered with Luc-eGFP-TK fusion gene were injected intravenously into the mouse-tail vein, and the treatment was started when decent myeloma cells implantation was detected by bioluminescence imaging on day 7.

SKOV3 = assay: XTT cell growth inhibition, SKOV3; format: cell-based; conditions: Homo sapiens, SK-OV-3, read-out: IC50 (nM), SKOV3
[5] = test system: Human marrow stromal cell lines, HS-27A and HS-5; assay: XTT cell proliferation, normal stromal cells; conditions: read-out: IC50, stromal lines HS-27A and HS-5
Source text: Human marrow stromal cell lines, HS-27A and HS-5 immortalized by E6/E7 genes, have normal marrow stromal function, which support stem cell self-renewal, and proliferation.

## C/C1=C/CC(/C(C)=C/c2csc(C)n2)OC(=O)C[C@H](O)C(C)(C)C(=O)[C@H](C)[C@@H](O)[C@@H](C)CCC1 (stereo partly shown) [Compound 1, 12,13-desoxyepothilone B, reference compound]
HCT-116
  IC50: 7.5 ± 3.1 nM
CAG
  IC50: 61.3 ± 4.2 nM
RPMI8226
  IC50: 36.7 ± 2 nM
Solubility in water
  solubility: 9.4 µg/mL (≈ 19.1 µM)
Human CD34+ stem cells
  Toxicity on non-cycling stem cells: no significant toxicity
IGROV
  IC50: 15 ± 3.8 nM
Ovarian cancer lines
  IC50: 16.5 nM
[1]
  Apoptosis (Annexin V / 7-AAD): majority of cell either enter apoptosis or are dead
Primary CD138 MM cells
  Tumor apoptosis within 24 hrs: not
HT-29
  IC50: 7.2 ± 2.2 nM
Ovcar-3
  IC50: 14 ± 3.6 nM
[2]
  Cell cycle arrest: absolutely blocked cell cycle at G2M phase
CCRF-CEM/Taxol; read-out: IC50 (μM), CCRF-CEM/Taxol
  IC50: 0.0057 µM
CCRF-CEM/Taxol; read-out: IC50, C/Taxol (μM)
  IC50: 0.0046 µM
CCRF-CEM/Taxol; read-out: IC50, CCRF-CEM/Taxol
  IC50: 0.0046 µM
CCRF-CEM; human
  IC50: 0.0056 ± 0.0028 µM
CCRF-CEM; read-out: IC50 (μM), CCRF-CEM, XTT assay following 72 h inhibition, Table 1-2
  IC50: 0.0036 µM
CCRF-CEM; read-out: IC50, CCRF-CEM(C), XTT assay following 72 h inhibition, Table 1-3
  IC50: 0.0036 µM
CCRF-CEM; read-out: IC50, CCRF-CEM, XTT assay following 72 h inhibition, Table 1-4
  IC50: 0.0036 µM
[3]; 6 hrs or 18 hrs of dEpoB treatment
  Increase in expression, OAS2: +2
[3]; 18 hrs of dEpoB treatment
  Increase in expression, MX1: +2.3
Ovcar-4
  IC50: 16 ± 2.5 nM
MOLP-5
  IC50: 68.6 ± 5.5 nM
SKI-DLBCL
  IC50: 72 ± 9.8 nM
OPM-2 myeloma cells
  Cell cycle arrest: arrested in G2M phase starting from 6 hours and absolutely blocked at 24 hours
HS-5
  IC50: 100 ± 8 nM
[4]
  Decrease in body weight without lethality: 31%
CAG myeloma cells
  Survival after transplanting CAG cells (Kaplan-Meier): ≤ 50 days
CAG myeloma cells; intraperitoneal
  Survival versus controls: no difference in survival
SKOV3
  IC50: 13 ± 4.7 nM
[5]
  IC50: 90 to 100 nM
